From the NIST ThermoML archive (doi:10.1016/j.jct.2016.03.034)

What was measured:
[1] = 101.33 kPa, Liquid; for viscosity: Capillary tube (Ostwald / Ubbelohde) method; for mass density: Vibrating tube method
[2] = xn = mol fraction of the nth substance listed; conditions: 100 kPa, Liquid, x1 = 1; for viscosity: Capillary tube (Ostwald / Ubbelohde) method; for mass density: Vibrating tube method

CCn1cc[n+](C)c1.O=S(=O)([N-]S(=O)(=O)C(F)(F)F)C(F)(F)F
[1]
Conditions | mass density [kg/m3] | viscosity [mPa·s]
293.15 K | 1523.44 | 37.8
298.15 K | 1518.3 | 31.79
303.15 K | 1513.11 | 26.84
308.15 K | 1507.9 | 22.9
313.15 K | 1502.68 | 19.75
318.15 K | 1497.48 | 17.05
323.15 K | 1492.24 | 15.02

CCCCCCCCn1cc[n+](C)c1.O=S(=O)([N-]S(=O)(=O)C(F)(F)F)C(F)(F)F + O=C1CCCO1
[2]
Conditions | mass density [kg/m3] | viscosity [mPa·s]
293.15 K | 1324.82 | 114.86
298.15 K | 1320.47 | 88.59
303.15 K | 1316.05 | 69.08
308.15 K | 1311.64 | 56.43
313.15 K | 1307.24 | 45.03
318.15 K | 1302.85 | 37.25
323.15 K | 1298.47 | 30.83

CCCCCCCCn1cc[n+](C)c1.O=S(=O)([N-]S(=O)(=O)C(F)(F)F)C(F)(F)F
[1]
Conditions | mass density [kg/m3] | viscosity [mPa·s]
273.15 K | 1340.42 | –
283.15 K | 1331.26 | 208.88
293.15 K | 1324.82 | 114.86
298.15 K | 1320.47 | 88.59
303.15 K | 1316.05 | 69.08
308.15 K | 1311.64 | 55.38
313.15 K | 1307.24 | 45.03
318.15 K | 1302.85 | 37.25
323.15 K | 1298.47 | 30.83

CCCCCC[n+]1ccn(C)c1.O=S(=O)([N-]S(=O)(=O)C(F)(F)F)C(F)(F)F
[1]
Conditions | mass density [kg/m3] | viscosity [mPa·s]
273.15 K | 1395.43 | 279.26
278.15 K | 1390.66 | –
283.15 K | 1386.02 | 148.8
288.15 K | 1381.44 | –
293.15 K | 1376.84 | 87.29
298.15 K | 1371.81 | 70.52
303.15 K | 1367.68 | 55.92
308.15 K | 1363.11 | 47.46
313.15 K | 1357.51 | 37.22
318.15 K | 1352.62 | 31.35
323.15 K | 1349.46 | 25.95

CCCCCC[n+]1ccn(C)c1.O=S(=O)([N-]S(=O)(=O)C(F)(F)F)C(F)(F)F + O=C1CCCO1
[2]
Conditions | mass density [kg/m3] | viscosity [mPa·s]
293.15 K | 1376.84 | 87.29
298.15 K | 1371.81 | 70.52
303.15 K | 1367.68 | 55.92
308.15 K | 1363.11 | 47.46
313.15 K | 1357.51 | 37.22
318.15 K | 1352.62 | 31.35
323.15 K | 1349.46 | 25.95

CCn1cc[n+](C)c1.O=S(=O)([N-]S(=O)(=O)C(F)(F)F)C(F)(F)F + O=C1CCCO1
[2]
Conditions | mass density [kg/m3] | viscosity [mPa·s]
293.15 K | 1523.44 | 37.8
298.15 K | 1518.3 | 31.79
303.15 K | 1513.11 | 26.84
308.15 K | 1507.9 | 22.9
313.15 K | 1502.68 | 19.75
318.15 K | 1497.48 | 17.05
323.15 K | 1492.24 | 15.02
